In US12376590B2, “Compositions comprising pyridine carboxylate herbicides and azole carboxylate safeners” (Corteva Agriscience LLC, priority 2018, dated 2025):

Columns and labels:
Test in all cases: Greenhouse postemergence herbicidal safening trial, visual injury after 20-22 d
[1] = system: maize (ZEAMX); format: in vivo, Zea mays
Description: (§1) Greenhouse Trial Methodology—Evaluation of Postemergence Herbicidal Safening in Crops
(§2) Seeds of the desired test plant species were planted in a 90:10% v/v (volume/volume) mixture of PRO-MIX® BX (Premier Tech Horticulture, Quakertown, PA, USA) and PROFILE® GREENS GRADE™ (Profile Products LLC, Buffalo Grove, IL, USA) planting mixture, which typically has a pH of 5.2 to 6.2 and an organic matter content of at least 50 percent, in plastic pots with a surface area of 103.2 square centimeters (cm^2). When required to ensure good germination and healthy plants, a fungicide treatment and/or other chemical or physical treatment was applied. The plants were grown for 7-36 days (d) in a greenhouse with an approximate 14-hour (h) photo-period which was maintained at about 23° C. during the day and 22° C. during the night. Nutrients and water were added on a regular basis and supplemental lighting was provided with overhead metal halide 1000-Watt lamps as necessary. The plants were employed for testing when they reached the second or third true leaf stage.
(§3) Emulsifiable concentrates of each of each pyridine carboxylate herbicide (Compound A or Compound B) were prepared at 100 grams acid equivalent per liter (g ae/L). An aliquot of each emulsifiable concentrate was placed in a 25 mL glass vial and diluted with an aqueous mixture of 1.25% (v/v) ACTIROB® B esterified rapeseed oil (Bayer Crop Science, Research Triangle Park, NC, USA) or MSO® Concentrate with LECI-TECH® methylated soybean oil (Loveland Products, Loveland, CO, USA) to obtain concentrated stock solutions at the highest application rate for each herbicide, based upon a 12 milliliter (mL) application volume at a rate of 187 liters per hectare (L/ha). The concentrated stock solutions were further diluted with an aqueous mixture of 1.25% v/v ACTIROB® B or MSO® Concentrate with LECI-TECH® to obtain stock solutions at reduced application rates for each herbicide. Spray solutions of the herbicide combinations (Compound A or Compound B plus safener) were prepared by adding weighed amounts or aliquots of the azole carboxylate safener to the stock solutions of Compound A or Compound B to form 12-mL spray solutions in two-way combinations.
(§4) The spray solutions were applied to the plant material with an overhead Mandel track sprayer equipped with 8002E nozzles calibrated to deliver 187 L/ha over an application area of 0.503 square meters (m^2) at a spray height of 18 inches (43 centimeters (cm)) above the average plant canopy. Control plants were sprayed in the same manner with the solvent blank. All herbicide (component a) application rates are given as “g ae/ha” and all safener (component b) application rates are given as “g ai/ha.”
(§5) The treated plants and control plants were placed in a greenhouse as described above and watered by sub-irrigation to prevent wash-off of the test compounds. After 20-22 d, the condition of the test plants as compared with that of the control plants was determined visually and scored on a scale of 0 to 100 percent where 0 corresponds to no injury and 100 corresponds to complete kill.

[2] = system: common rice (ORYSA); format: in vivo, Oryza sativa
Description: as §1, §2, §3, §4, §5

[3] = system: Russian thistle (SASKR); format: in vivo, Salsola kali; conditions: applied alone
Description: as §1, §2, §3, §4, §5

[4] = system: nutsedge (CYPES); format: in vivo, Cyperus esculentus
Description: as §1, §2, §3, §4, §5

[5] = system: common sunflower (HELAN); format: in vivo, Helianthus annuus
Description: as §1, §2, §3, §4, §5

[6] = system: velvetleaf (ABUTH); format: in vivo, Abutilon theophrasti
Description: as §1, §2, §3, §4, §5

[7] = system: wild oat (AVEFA); format: in vivo, Avena fatua
Description: as §1, §2, §3, §4, §5

[8] = system: common lambsquarters (CHEAL); format: in vivo, Chenopodium album L.
Description: as §1, §2, §3, §4, §5

[9] = system: Canada thistle (CIRAR); format: in vivo, Cirsium arvense
Description: as §1, §2, §3, §4, §5

[10] = system: Canada horseweed (ERICA); format: in vivo, Erigeron canadensis
Description: as §1, §2, §3, §4, §5

[11] = system: soybean (GLXMA); format: in vivo, Glycine max
Description: as §1, §2, §3, §4, §5

[12] = system: ivyleaf morningglory (IPOHE); format: in vivo, Ipomoea hederacea
Description: as §1, §2, §3, §4, §5

[13] = system: herbicide-resistant kochia (KCHSC-R); format: in vivo, Kochia scoparia
Description: as §1, §2, §3, §4, §5

[14] = system: kochia (KCHSC); format: in vivo, Kochia scoparia
Description: as §1, §2, §3, §4, §5

[15] = system: Chinese sprangletop (LEFCH); format: in vivo, Leptochloa chinensis
Description: as §1, §2, §3, §4, §5

[16] = system: Italian ryegrass (LOLMU); format: in vivo, Lolium multiflorum
Description: as §1, §2, §3, §4, §5

[17] = system: giant foxtail (SETFA); format: in vivo, Setaria faberi
Description: as §1, §2, §3, §4, §5

Measured: % visual injury Ob

CCOC(=O)C1=NN(c2ccc(Cl)cc2Cl)C(C)(C(=O)OCC)C1 (stereo not drawn) [Mefenpyr-diethyl, mefenpyr-diethyl]
0%: [1]; Mefenpyr-diethyl 20 g/ha | [1]; Mefenpyr-diethyl 40 g/ha | [1]; Mefenpyr-diethyl 80 g/ha | [1]; applied alone, 20 g/ha | [1]; applied alone, 40 g/ha | [1]; applied alone, 80 g/ha | [1]; applied alone, 120 g/ha | [2]; Mefenpyr-diethyl 20 g/ha | [2]; Mefenpyr-diethyl 40 g/ha | [2]; Mefenpyr-diethyl 80 g/ha | [3]; 10 g/ha | [3]; 20 g/ha | [3]; 40 g/ha | [4]; Mefenpyr-diethyl 20 g/ha | [4]; Mefenpyr-diethyl 40 g/ha | [4]; Mefenpyr-diethyl 80 g/ha | [4]; applied alone, 20 g/ha | [4]; applied alone, 40 g/ha | [4]; applied alone, 80 g/ha | [4]; applied alone, 120 g/ha | [5]; Mefenpyr-diethyl 20 g/ha | [5]; Mefenpyr-diethyl 40 g/ha | [5]; Mefenpyr-diethyl 80 g/ha | [5]; applied alone, 20 g/ha | [5]; applied alone, 40 g/ha | [5]; applied alone, 80 g/ha | [5]; applied alone, 120 g/ha | [6]; Mefenpyr-diethyl 20 g/ha | [6]; Mefenpyr-diethyl 40 g/ha | [6]; Mefenpyr-diethyl 80 g/ha | [7]; Mefenpyr-diethyl 20 g/ha | [7]; Mefenpyr-diethyl 40 g/ha | [7]; Mefenpyr-diethyl 80 g/ha | [8]; Mefenpyr-diethyl 20 g/ha | [8]; Mefenpyr-diethyl 40 g/ha | [8]; Mefenpyr-diethyl 80 g/ha | [9]; Mefenpyr-diethyl 20 g/ha | [9]; Mefenpyr-diethyl 40 g/ha | [9]; Mefenpyr-diethyl 80 g/ha | [10]; Mefenpyr-diethyl 20 g/ha | [10]; Mefenpyr-diethyl 40 g/ha | [10]; Mefenpyr-diethyl 80 g/ha | [11]; Mefenpyr-diethyl 20 g/ha | [11]; Mefenpyr-diethyl 40 g/ha | [11]; Mefenpyr-diethyl 80 g/ha | [12]; Mefenpyr-diethyl 20 g/ha | [12]; Mefenpyr-diethyl 40 g/ha | [12]; Mefenpyr-diethyl 80 g/ha | [13]; Mefenpyr-diethyl 20 g/ha | [13]; Mefenpyr-diethyl 40 g/ha | [13]; Mefenpyr-diethyl 80 g/ha | [14]; Mefenpyr-diethyl 20 g/ha | [14]; Mefenpyr-diethyl 40 g/ha | [14]; Mefenpyr-diethyl 80 g/ha | [15]; Mefenpyr-diethyl 20 g/ha | [15]; Mefenpyr-diethyl 40 g/ha | [15]; Mefenpyr-diethyl 80 g/ha | [16]; Mefenpyr-diethyl 20 g/ha | [16]; Mefenpyr-diethyl 40 g/ha | [16]; Mefenpyr-diethyl 80 g/ha | [17]; Mefenpyr-diethyl 20 g/ha | [17]; Mefenpyr-diethyl 40 g/ha | [17]; Mefenpyr-diethyl 80 g/ha
